Measured values: paper PMC3685283 (Molecular cancer research : MCR, 2012)
pKd: −log10 of the molar value.

How the values were obtained:
Smoothened (SMO) [1] = target: Smoothened (SMO) (Homo sapiens, UniProt Q99835); test: BODIPY-cyclopamine competition binding in SMO-transfected HeLa cells; type: cell-based
Smoothened (SMO) [2] = target: Smoothened (SMO) (Mus musculus, UniProt P56726); test: as above; type: cell-based
Chain of Smoothened (SMO) (Mus musculus, UniProt P56726) (P56726 33-793): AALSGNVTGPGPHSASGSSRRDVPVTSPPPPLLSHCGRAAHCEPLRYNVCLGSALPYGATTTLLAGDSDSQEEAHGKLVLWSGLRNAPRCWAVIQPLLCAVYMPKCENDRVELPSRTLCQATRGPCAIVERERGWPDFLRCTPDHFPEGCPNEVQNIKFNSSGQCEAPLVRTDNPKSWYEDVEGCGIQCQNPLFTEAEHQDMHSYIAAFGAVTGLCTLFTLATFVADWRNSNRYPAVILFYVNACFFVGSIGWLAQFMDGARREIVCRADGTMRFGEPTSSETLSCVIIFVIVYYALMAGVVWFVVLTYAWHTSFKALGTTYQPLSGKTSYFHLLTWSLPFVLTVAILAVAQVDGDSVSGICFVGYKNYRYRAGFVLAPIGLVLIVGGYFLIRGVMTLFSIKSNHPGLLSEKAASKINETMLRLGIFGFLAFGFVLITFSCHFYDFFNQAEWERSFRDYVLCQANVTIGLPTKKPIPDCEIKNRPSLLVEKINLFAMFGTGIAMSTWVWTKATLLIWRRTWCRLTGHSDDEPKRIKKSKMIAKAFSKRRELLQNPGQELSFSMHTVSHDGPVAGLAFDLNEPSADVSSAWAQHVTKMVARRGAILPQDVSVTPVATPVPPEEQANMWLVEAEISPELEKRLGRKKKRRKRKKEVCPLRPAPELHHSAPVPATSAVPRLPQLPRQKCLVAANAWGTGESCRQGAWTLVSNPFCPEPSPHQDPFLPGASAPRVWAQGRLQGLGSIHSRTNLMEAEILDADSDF

Chain of Smoothened (SMO) (Homo sapiens, UniProt Q99835) (Q99835 28-787): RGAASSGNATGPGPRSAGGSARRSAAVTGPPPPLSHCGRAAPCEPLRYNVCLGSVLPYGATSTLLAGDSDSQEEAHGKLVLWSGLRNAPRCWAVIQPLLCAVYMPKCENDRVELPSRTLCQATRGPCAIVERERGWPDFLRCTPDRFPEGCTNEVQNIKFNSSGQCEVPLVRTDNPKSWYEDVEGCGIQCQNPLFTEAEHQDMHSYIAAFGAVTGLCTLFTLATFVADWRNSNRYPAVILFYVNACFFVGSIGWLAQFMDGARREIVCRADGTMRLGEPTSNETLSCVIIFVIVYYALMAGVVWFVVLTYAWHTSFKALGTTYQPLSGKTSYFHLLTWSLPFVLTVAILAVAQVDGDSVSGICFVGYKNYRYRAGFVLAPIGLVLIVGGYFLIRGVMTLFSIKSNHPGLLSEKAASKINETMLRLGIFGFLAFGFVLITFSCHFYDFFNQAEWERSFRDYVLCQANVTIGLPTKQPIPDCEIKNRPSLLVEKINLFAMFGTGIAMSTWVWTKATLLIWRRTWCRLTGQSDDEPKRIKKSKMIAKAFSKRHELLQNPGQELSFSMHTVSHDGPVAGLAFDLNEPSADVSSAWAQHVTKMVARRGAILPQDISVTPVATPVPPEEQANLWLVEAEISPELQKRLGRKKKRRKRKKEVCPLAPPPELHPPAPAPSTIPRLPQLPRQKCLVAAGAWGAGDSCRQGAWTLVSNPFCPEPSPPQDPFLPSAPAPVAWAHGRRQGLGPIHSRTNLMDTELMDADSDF

pKd (Smoothened (SMO) [1]): 9.10
pKd (Smoothened (SMO) [2]): 8.70
Structure (SMILES): CC1=C2C[C@H]3[C@@H](CC=C4CC(=O)CC[C@@]43C)[C@@H]2CC[C@]12O[C@@H]1C[C@H](C)CN(CCNC(=O)CCCCCNC(=O)CCc3ccccc3)[C@H]1[C@H]2C [KAAD-cyclopamine]
